Legend:
[1] = target: Ephrin type-B receptor 2 (Homo sapiens) (UniProt P29323); conditions: Compound concentration 1000.0 nM
[2] = target: 1-phosphatidylinositol 3-phosphate 5-kinase (Homo sapiens) (UniProt Q9Y2I7); conditions: Compound concentration 1000.0 nM
[3] = target: Serine/threonine-protein kinase 35 (Homo sapiens) (UniProt Q8TDR2); conditions: Compound concentration 1000.0 nM
[4] = target: Interleukin-1 receptor-associated kinase 4 (Homo sapiens) (UniProt Q9NWZ3); conditions: Compound concentration 1000.0 nM
Sequence of Interleukin-1 receptor-associated kinase 4 (Homo sapiens) (Q9NWZ3 whole entry): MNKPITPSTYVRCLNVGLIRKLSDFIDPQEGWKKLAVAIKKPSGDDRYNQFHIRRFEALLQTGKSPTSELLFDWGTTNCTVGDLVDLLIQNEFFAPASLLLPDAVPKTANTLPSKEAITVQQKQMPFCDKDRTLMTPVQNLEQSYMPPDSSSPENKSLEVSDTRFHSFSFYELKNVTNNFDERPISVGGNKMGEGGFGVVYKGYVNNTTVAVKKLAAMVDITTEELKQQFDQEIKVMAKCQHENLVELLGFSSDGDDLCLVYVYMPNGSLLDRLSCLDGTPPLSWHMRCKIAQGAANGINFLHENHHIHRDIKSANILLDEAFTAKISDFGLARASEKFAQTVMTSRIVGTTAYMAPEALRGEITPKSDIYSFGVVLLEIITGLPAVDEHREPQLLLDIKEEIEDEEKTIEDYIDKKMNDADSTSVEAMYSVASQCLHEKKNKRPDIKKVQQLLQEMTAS

[5] = target: Beta-adrenergic receptor kinase 1 (Homo sapiens) (UniProt P25098); conditions: Compound concentration 1000.0 nM
[6] = target: Hepatocyte growth factor receptor (Homo sapiens) (UniProt P08581); conditions: Compound concentration 1000.0 nM
[7] = target: RAF proto-oncogene serine/threonine-protein kinase (Homo sapiens) (UniProt P04049); conditions: Compound concentration 1000.0 nM
[8] = target: Serine/threonine-protein kinase OSR1 (Homo sapiens) (UniProt O95747); conditions: Compound concentration 1000.0 nM
[9] = target: Cyclin-dependent kinase 13 (Homo sapiens) (UniProt Q14004); conditions: Compound concentration 1000.0 nM
[10] = target: Ephrin type-A receptor 2 (Homo sapiens) (UniProt P29317); conditions: Compound concentration 1000.0 nM
[11] = target: Ribosomal protein S6 kinase alpha-1 (Homo sapiens) (UniProt Q15418); conditions: Compound concentration 1000.0 nM
[12] = system: Phosphatidylinositol 4,5-bisphosphate 3-kinase catalytic subunit alpha isoform (Homo sapiens), P42336 [E542K]; conditions: Compound concentration 1000.0 nM
[13] = system: Receptor-type tyrosine-protein kinase FLT3 (Homo sapiens), P36888 [UNDEFINED MUTATION]; conditions: Compound concentration 1000.0 nM
[14] = target: Serine/threonine-protein kinase 16 (Homo sapiens) (UniProt O75716); conditions: Compound concentration 1000.0 nM
[15] = system: Hepatocyte growth factor receptor (Homo sapiens), P08581 [M1250T]; conditions: Compound concentration 1000.0 nM
[16] = target: Calcium/calmodulin-dependent protein kinase type II subunit beta (Homo sapiens) (UniProt Q13554); conditions: Compound concentration 1000.0 nM
Sequence of Calcium/calmodulin-dependent protein kinase type II subunit beta (Homo sapiens) (Q13554 whole entry): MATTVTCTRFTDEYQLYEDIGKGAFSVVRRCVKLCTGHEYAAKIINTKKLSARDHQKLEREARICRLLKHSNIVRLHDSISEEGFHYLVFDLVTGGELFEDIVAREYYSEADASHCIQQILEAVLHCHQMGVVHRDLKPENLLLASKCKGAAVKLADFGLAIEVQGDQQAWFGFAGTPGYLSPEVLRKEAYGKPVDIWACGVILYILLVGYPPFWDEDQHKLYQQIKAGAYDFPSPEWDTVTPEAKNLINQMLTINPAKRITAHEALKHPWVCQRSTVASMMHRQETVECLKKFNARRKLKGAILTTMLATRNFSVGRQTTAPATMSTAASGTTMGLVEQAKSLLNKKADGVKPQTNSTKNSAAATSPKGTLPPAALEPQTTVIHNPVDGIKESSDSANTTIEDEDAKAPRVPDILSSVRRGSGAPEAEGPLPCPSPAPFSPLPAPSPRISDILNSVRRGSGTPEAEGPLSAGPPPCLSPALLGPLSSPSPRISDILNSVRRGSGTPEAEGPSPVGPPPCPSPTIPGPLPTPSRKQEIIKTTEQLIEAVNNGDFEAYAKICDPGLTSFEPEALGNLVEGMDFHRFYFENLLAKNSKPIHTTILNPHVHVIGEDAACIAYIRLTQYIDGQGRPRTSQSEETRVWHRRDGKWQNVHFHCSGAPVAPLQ

[17] = target: Homeodomain-interacting protein kinase 3 (Homo sapiens) (UniProt Q9H422); conditions: Compound concentration 1000.0 nM
[18] = target: High affinity nerve growth factor receptor (Homo sapiens) (UniProt P04629); conditions: Compound concentration 1000.0 nM
[19] = target: LIM domain kinase 1 (Homo sapiens) (UniProt P53667); conditions: Compound concentration 1000.0 nM
[20] = system: Tyrosine-protein kinase ABL1 (Homo sapiens), P00519 [H396P]; conditions: Compound concentration 1000.0 nM
[21] = system: Tyrosine-protein kinase ABL1 (Homo sapiens), P00519 [Q252H]; conditions: Compound concentration 1000.0 nM
[22] = target: Serine/threonine-protein kinase TAO2 (Homo sapiens) (UniProt Q9UL54); conditions: Compound concentration 1000.0 nM
[23] = target: Tyrosine-protein kinase TXK (Homo sapiens) (UniProt P42681); conditions: Compound concentration 1000.0 nM
[24] = target: Serine/threonine-protein kinase 33 (Homo sapiens) (UniProt Q9BYT3); conditions: Compound concentration 1000.0 nM
[25] = target: Membrane-associated tyrosine- and threonine-specific cdc2-inhibitory kinase (Homo sapiens) (UniProt Q99640); conditions: Compound concentration 1000.0 nM
[26] = target: RAC-alpha serine/threonine-protein kinase (Homo sapiens) (UniProt P31749); conditions: Compound concentration 1000.0 nM
Sequence of RAC-alpha serine/threonine-protein kinase (Homo sapiens) (P31749 whole entry): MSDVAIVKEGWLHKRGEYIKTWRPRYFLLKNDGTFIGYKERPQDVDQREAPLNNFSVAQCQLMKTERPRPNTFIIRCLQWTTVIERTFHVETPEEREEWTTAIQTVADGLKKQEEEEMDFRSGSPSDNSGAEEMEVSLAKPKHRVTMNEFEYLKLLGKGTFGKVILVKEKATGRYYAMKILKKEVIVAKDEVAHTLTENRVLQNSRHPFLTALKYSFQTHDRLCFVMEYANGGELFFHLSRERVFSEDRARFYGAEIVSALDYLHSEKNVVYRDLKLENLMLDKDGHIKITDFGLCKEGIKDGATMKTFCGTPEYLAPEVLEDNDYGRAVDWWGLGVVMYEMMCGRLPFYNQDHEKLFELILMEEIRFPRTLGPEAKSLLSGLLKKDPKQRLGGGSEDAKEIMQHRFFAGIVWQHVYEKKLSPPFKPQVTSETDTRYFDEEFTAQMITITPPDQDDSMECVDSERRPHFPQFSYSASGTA

[27] = target: Dual serine/threonine and tyrosine protein kinase (Homo sapiens) (UniProt Q6XUX3); conditions: Compound concentration 1000.0 nM
Sequence of Dual serine/threonine and tyrosine protein kinase (Homo sapiens) (Q6XUX3 whole entry): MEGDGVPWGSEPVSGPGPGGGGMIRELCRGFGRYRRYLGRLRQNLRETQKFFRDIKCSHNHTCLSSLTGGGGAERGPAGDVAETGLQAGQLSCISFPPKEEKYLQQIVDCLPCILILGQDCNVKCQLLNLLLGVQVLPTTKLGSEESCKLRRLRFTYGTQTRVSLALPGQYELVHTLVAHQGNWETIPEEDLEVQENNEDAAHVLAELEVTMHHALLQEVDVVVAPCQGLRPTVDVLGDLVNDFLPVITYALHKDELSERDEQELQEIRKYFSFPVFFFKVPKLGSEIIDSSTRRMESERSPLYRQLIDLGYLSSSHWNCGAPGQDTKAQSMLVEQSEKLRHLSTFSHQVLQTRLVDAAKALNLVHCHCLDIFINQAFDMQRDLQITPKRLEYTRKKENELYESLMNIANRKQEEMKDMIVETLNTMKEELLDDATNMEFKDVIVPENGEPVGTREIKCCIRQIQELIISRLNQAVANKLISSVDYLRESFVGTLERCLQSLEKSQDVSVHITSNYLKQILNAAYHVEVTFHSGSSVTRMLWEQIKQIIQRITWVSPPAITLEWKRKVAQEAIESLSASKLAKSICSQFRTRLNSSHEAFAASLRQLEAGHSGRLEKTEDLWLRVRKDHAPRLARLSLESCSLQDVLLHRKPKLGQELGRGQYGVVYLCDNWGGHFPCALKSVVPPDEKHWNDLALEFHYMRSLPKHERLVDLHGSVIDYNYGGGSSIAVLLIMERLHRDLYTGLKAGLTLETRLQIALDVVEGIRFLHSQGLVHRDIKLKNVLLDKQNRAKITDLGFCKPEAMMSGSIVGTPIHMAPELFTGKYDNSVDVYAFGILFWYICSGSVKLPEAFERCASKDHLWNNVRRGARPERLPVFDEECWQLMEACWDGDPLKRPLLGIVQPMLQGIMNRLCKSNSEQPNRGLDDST

[28] = target: Calcium/calmodulin-dependent protein kinase type 1B (Homo sapiens) (UniProt Q6P2M8); conditions: Compound concentration 1000.0 nM
[29] = target: Rho-associated protein kinase 2 (Homo sapiens) (UniProt O75116); conditions: Compound concentration 1000.0 nM
[30] = target: Vascular endothelial growth factor receptor 1 (Homo sapiens) (UniProt P17948); conditions: Compound concentration 1000.0 nM
[31] = target: Interferon-induced, double-stranded RNA-activated protein kinase (Homo sapiens) (UniProt P19525); conditions: Compound concentration 1000.0 nM
Sequence of Interferon-induced, double-stranded RNA-activated protein kinase (Homo sapiens) (P19525 whole entry): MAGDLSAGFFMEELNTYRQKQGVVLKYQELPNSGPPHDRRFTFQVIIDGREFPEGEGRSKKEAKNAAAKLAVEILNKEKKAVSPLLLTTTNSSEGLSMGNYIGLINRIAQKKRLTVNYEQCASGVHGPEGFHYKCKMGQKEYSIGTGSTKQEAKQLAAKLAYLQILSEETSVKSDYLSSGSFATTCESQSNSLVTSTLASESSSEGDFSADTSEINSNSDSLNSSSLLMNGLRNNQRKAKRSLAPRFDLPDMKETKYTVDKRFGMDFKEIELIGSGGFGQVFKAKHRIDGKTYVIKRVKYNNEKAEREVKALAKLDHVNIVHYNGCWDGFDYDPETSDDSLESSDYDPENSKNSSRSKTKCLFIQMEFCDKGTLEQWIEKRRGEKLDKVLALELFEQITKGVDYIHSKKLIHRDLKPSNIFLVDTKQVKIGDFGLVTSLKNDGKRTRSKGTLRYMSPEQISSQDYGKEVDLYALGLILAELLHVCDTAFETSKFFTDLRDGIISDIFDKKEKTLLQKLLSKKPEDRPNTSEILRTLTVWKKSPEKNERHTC

[32] = target: Sigma intracellular receptor 2 (Homo sapiens, UniProt Q5BJF2); conditions: Compound concentration 10.0 uM
[33] = target: Phosphorylase b kinase regulatory subunit alpha, liver isoform (Homo sapiens) (UniProt P46019); conditions: Compound concentration 1000.0 nM
[34] = target: Mitogen-activated protein kinase 10 (Homo sapiens) (UniProt P53779); conditions: Compound concentration 1000.0 nM
[35] = target: Serine/threonine-protein kinase pim-1 (Homo sapiens) (UniProt P11309); conditions: Compound concentration 1000.0 nM
[36] = target: Aurora kinase B (Homo sapiens) (UniProt Q96GD4); conditions: Compound concentration 1000.0 nM
[37] = target: Testis-specific serine/threonine-protein kinase 1 (Homo sapiens) (UniProt Q9BXA7); conditions: Compound concentration 1000.0 nM
[38] = target: Mitogen-activated protein kinase kinase kinase 6 (Homo sapiens) (UniProt O95382); conditions: Compound concentration 1000.0 nM
[39] = target: Mitogen-activated protein kinase kinase kinase 10 (Homo sapiens) (UniProt Q02779); conditions: Compound concentration 1000.0 nM
[40] = target: 5-hydroxytryptamine receptor 2A (Homo sapiens, UniProt P28223); conditions: Compound concentration 10.0 uM
[41] = system: Phosphatidylinositol 4,5-bisphosphate 3-kinase catalytic subunit alpha isoform (Homo sapiens), P42336 [M1043I]; conditions: Compound concentration 1000.0 nM
Sequence of Phosphatidylinositol 4,5-bisphosphate 3-kinase catalytic subunit alpha isoform (Homo sapiens), P42336 [M1043I] (P42336 whole entry M1043I, canonical isoform): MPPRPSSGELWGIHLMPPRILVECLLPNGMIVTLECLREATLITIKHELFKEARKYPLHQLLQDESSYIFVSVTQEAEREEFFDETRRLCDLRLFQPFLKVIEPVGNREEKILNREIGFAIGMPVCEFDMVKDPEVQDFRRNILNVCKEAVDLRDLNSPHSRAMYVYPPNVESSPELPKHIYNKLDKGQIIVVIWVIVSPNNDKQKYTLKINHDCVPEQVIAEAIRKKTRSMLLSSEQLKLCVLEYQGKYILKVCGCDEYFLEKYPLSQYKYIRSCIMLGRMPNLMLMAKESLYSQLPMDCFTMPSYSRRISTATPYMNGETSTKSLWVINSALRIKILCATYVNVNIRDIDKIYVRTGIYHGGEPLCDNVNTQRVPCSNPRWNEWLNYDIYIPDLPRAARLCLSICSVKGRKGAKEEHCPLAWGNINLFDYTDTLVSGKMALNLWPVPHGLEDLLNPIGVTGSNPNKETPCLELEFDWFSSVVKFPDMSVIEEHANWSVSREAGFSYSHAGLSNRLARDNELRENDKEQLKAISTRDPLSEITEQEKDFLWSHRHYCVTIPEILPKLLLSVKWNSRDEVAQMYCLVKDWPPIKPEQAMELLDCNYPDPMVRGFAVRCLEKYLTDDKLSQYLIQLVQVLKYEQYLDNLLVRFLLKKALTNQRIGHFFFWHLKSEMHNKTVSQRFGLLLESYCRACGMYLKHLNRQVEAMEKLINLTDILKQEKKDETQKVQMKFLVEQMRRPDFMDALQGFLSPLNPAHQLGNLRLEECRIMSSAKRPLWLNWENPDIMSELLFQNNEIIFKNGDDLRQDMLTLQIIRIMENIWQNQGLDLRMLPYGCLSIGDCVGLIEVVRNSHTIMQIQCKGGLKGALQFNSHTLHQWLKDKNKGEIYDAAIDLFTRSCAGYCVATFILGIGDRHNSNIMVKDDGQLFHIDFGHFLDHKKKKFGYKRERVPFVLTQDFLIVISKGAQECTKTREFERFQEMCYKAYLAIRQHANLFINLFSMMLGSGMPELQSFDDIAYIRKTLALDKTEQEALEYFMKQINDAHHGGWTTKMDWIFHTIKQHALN

[42] = target: Tyrosine-protein kinase FRK (Homo sapiens) (UniProt P42685); conditions: Compound concentration 1000.0 nM
[43] = target: SNF-related serine/threonine-protein kinase (Homo sapiens) (UniProt Q9NRH2); conditions: Compound concentration 1000.0 nM
Sequence of SNF-related serine/threonine-protein kinase (Homo sapiens) (Q9NRH2 whole entry): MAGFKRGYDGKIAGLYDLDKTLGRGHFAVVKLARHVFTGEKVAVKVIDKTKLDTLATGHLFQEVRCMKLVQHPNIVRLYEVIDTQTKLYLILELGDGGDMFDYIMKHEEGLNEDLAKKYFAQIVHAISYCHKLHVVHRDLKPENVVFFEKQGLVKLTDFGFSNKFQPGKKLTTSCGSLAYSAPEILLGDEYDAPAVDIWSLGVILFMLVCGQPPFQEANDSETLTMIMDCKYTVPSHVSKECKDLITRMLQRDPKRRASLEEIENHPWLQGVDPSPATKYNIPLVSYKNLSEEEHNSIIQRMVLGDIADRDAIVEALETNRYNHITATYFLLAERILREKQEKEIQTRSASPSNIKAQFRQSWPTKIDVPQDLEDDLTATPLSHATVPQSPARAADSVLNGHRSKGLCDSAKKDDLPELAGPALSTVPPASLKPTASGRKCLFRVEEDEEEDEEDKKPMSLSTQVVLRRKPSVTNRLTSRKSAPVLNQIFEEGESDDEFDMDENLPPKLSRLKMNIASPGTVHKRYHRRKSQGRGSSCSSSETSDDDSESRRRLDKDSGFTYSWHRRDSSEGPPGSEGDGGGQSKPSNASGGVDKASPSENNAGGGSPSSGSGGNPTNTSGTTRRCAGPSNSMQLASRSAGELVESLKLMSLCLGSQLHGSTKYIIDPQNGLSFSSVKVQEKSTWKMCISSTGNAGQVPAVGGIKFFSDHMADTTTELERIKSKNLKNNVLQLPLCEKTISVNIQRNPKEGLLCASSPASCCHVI

[44] = target: Mast/stem cell growth factor receptor Kit (Homo sapiens) (UniProt P10721); conditions: Compound concentration 1000.0 nM
[45] = target: Myosin light chain kinase, smooth muscle (Homo sapiens) (UniProt Q15746); conditions: Compound concentration 1000.0 nM

Molecule `O=C(Nc1cccnn1)N1CCC(=Cc2cccc(Oc3ccc(C(F)(F)F)cn3)c2)CC1` has a residual activity [1] of 100%, a residual activity [2] of 100% and a residual activity [3] of 100%. The residual activity [4] was 97%, the residual activity [5] was 100% and the residual activity [6] was 100%. The residual activity [7] was 63%, the residual activity [8] was 100% and the residual activity [9] was 100%. It also gave a residual activity [10] of 81%, a residual activity [11] of 100% and a residual activity [12] of 65%. It also gave a residual activity [13] of 100%, a residual activity [14] of 90% and a residual activity [15] of 100%. The residual activity [16] was 89%, the residual activity [17] was 100% and the residual activity [18] was 100%. For the same molecule, the residual activity [19] was 88%, the residual activity [20] was 86% and the residual activity [21] was 99%. The residual activity [22] was 100%, the residual activity [23] was 100% and the residual activity [24] was 100%. For the same molecule, the residual activity [25] was 100%, the residual activity [26] was 93% and the residual activity [27] was 69%. The residual activity [28] was 100%, the residual activity [29] was 100% and the residual activity [30] was 100%. For the same molecule, the residual activity [31] was 100%, the inhibition [32] was 91.3% and the residual activity [33] was 88%. It also gave a residual activity [34] of 100%, a residual activity [35] of 85% and a residual activity [36] of 100%. The residual activity [37] was 82%, the residual activity [38] was 100% and the residual activity [39] was 100%. The inhibition [40] was 82.9%, the residual activity [41] was 65% and the residual activity [42] was 100%. For the same molecule, the residual activity [43] was 100%, the residual activity [44] was 100% and the residual activity [45] was 100%.
`O=C(Nc1cccnn1)N1CC(C/C=C/c2cncc(Oc3ccc(C(F)(F)F)cn3)n2)C1` showed a residual activity [1] of 100%, a residual activity [2] of 100% and a residual activity [3] of 94%. The residual activity [4] was 100%, the residual activity [5] was 96% and the residual activity [6] was 95%. It also gave a residual activity [7] of 100%, a residual activity [8] of 71% and a residual activity [9] of 98%. It also gave a residual activity [10] of 100%, a residual activity [11] of 100% and a residual activity [12] of 88%. It also gave a residual activity [13] of 76%, a residual activity [14] of 98% and a residual activity [15] of 100%. The residual activity [16] was 100%, the residual activity [17] was 74% and the residual activity [18] was 82%. It also gave a residual activity [19] of 88%, a residual activity [20] of 100% and a residual activity [21] of 81%. It also gave a residual activity [22] of 66%, a residual activity [23] of 100% and a residual activity [24] of 100%. It also gave a residual activity [25] of 100%, a residual activity [26] of 100% and a residual activity [27] of 65%. It also gave a residual activity [28] of 63%, a residual activity [29] of 90% and a residual activity [30] of 100%. It also gave a residual activity [31] of 100%, an inhibition [32] of 69% and a residual activity [33] of 100%. It also gave a residual activity [34] of 77%, a residual activity [35] of 91% and a residual activity [36] of 59%. It also gave a residual activity [37] of 100%, a residual activity [38] of 60% and a residual activity [39] of 100%. For the same molecule, the inhibition [40] was -3.55%, the residual activity [41] was 100% and the residual activity [42] was 82%. It also gave a residual activity [43] of 100%, a residual activity [44] of 78% and a residual activity [45] of 73%.

From ChEMBL document CHEMBL4507297, “Data for DCP probe PF-04457845” (2021)
